{"source": "patent US20020137929A1", "about": "“1 - (3-heterocyclylphenyl) isothiourea, -isourea, -guanidine and -amidine herbicidal agents” (Intellectual Property Department, BASF Aktiengesellschaft, priority 1998, published 2002)", "key": {"[1]": {"test_system": "AMBEL (Ragweed, Common)", "test": "Postemergence herbicidal evaluation", "assay_type": "in vivo, Ambrosia artemisifolia", "details": "for herbicidal rating AMBEL: postemergence", "how_it_was_run": "(§1)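 Herbicidal effect was judged by eye on a 0–9 scale covering stand, vigor, deformity, size and chlorosis, compared with controls, four to five weeks after seedlings about two weeks old were sprayed (40 psi, ~0.0156–0.500 kg/ha).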"}, "[2]": {"test_system": "TRZAWR (Wheat, Winter, cv Riband)", "test": "Postemergence herbicidal evaluation", "assay_type": "in vivo, Triticum aestivum", "details": "for herbicidal rating TRZAWR: postemergence", "how_it_was_run": "as §1"}, "[3]": {"test_system": "CHEAL (Lambsquarters, Common)", "test": "Preemergence herbicidal evaluation", "assay_type": "in vivo, Chenopodium album", "details": "rated 4-5 weeks after treatment", "description": "Results of herbicide evaluation are expressed on a rating scale (0-9). The scale is based upon a visual observation of plant stand, vigor, malformation, size, chlorosis and overall plant appearance as compared with a control.\nThe preemergence herbicidal activity of the test compounds of the present invention is exemplified by the following tests in which the seeds of a variety of monocotyledonous and dicotyledonous plants are separately mixed with potting soil and planted on top of approximately one inch of soil in separate pint cups. After planting, the cups are sprayed with the selected aqueous acetone solution containing test compound in sufficient quantity to provide the equivalent of about 0.0156 to 0.500 kg per hectare of test compound per cup. The treated cups are then placed on greenhouse benches, watered and cared for in accordance with conventional greenhouse procedures. From four to five weeks after treatment, the tests are terminated and each cup is examined and rated according to the rating system provided in Example 37.\nThe compounds evaluated are reported by compound number given in Example 37."}, "[4]": {"test_system": "GALAP (Galium)", "test": "Postemergence herbicidal evaluation", "assay_type": "in vivo, Galium aparine", "details": "for herbicidal rating GALAP: postemergence", "how_it_was_run": "as §1"}, "[5]": {"details": "rate 0.1250 kg/ha, rating scale 0-9"}, "[6]": {"details": "rate 0.2500 kg/ha, rating scale 0-9"}}}
{"molecule": "COc1cccc(CN2C(=O)CSC2=Nc2cc(-n3c(=O)cc(C(F)(F)F)n(C)c3=O)c(F)cc2Cl)c1", "note": "[Compound 137, 3-{4-Chloro-2-fluoro-5-{[3-(m-methoxybenzyl)-4-oxo-2-thiazolidinylidene]amino}phenyl}-1-methyl-6-(trifluoromethyl)-2,4(1H,3H)-pyrimidinedione]", "values": [{"measurement": "herbicidal rating AMBEL", "setting": "[1]; rate 0.0156 kg/ha", "value": 9.0}, {"measurement": "herbicidal rating AMBEL", "setting": "[1]; rate 0.0313 kg/ha", "value": 9.0}, {"measurement": "herbicidal rating AMBEL", "setting": "[1]; rate 0.0625 kg/ha", "value": 9.0}, {"measurement": "herbicidal rating TRZAWR", "setting": "[2]; rate 0.0156 kg/ha", "value": 3.5}, {"measurement": "herbicidal rating TRZAWR", "setting": "[2]; rate 0.0313 kg/ha", "value": 3.0}, {"measurement": "herbicidal rating TRZAWR", "setting": "[2]; rate 0.0625 kg/ha", "value": 4.5}, {"measurement": "Preemergence herbicidal rating CHEAL", "setting": "[3]; rate 0.0625 kg/ha, rating scale 0-9", "value": 9.0}, {"measurement": "Preemergence herbicidal rating CHEAL", "setting": "[3]; [5]", "value": 9.0}, {"measurement": "Preemergence herbicidal rating CHEAL", "setting": "[3]; [6]", "value": 9.0}, {"measurement": "herbicidal rating GALAP", "setting": "[4]; rate 0.0156 kg/ha", "value": 1.0}, {"measurement": "herbicidal rating GALAP", "setting": "[4]; rate 0.0313 kg/ha", "value": 1.0}, {"measurement": "herbicidal rating GALAP", "setting": "[4]; rate 0.0625 kg/ha", "value": 3.0}]}
{"molecule": "CCCN1C(=O)CSC1=Nc1cc(-n2c(=O)cc(C(F)(F)F)n(C)c2=O)c(F)cc1Cl", "note": "[Compound 171, 3-{4-Chloro-2-fluoro-5-[(4-oxo-3-propyl-2-thiazolidinylidene)amino]phenyl}-1-methyl-6-(trifluoromethyl)-2,4 (1H, 3H)-pyrimidinedione]", "values": [{"measurement": "Postemergence herbicidal rating AMBEL", "setting": "[1]; Rate 0.0156 kg/ha", "value": 6.0}, {"measurement": "Postemergence herbicidal rating AMBEL", "setting": "[1]; Rate 0.0313 kg/ha", "value": 9.0}, {"measurement": "herbicidal rating AMBEL", "setting": "[1]; rate 0.0625 kg/ha", "value": 9.0}, {"measurement": "Postemergence herbicidal rating TRZAWR", "setting": "[2]; Rate 0.0156 kg/ha", "value": 4.0}, {"measurement": "Postemergence herbicidal rating TRZAWR", "setting": "[2]; Rate 0.0313 kg/ha", "value": 5.0}, {"measurement": "herbicidal rating TRZAWR", "setting": "[2]; rate 0.0625 kg/ha", "value": 6.0}, {"measurement": "Preemergence herbicidal rating CHEAL", "setting": "[3]; 0.0156 kg/ha", "value": 9.0}, {"measurement": "Preemergence herbicidal rating CHEAL", "setting": "[3]; 0.0313 kg/ha", "value": 9.0}, {"measurement": "Preemergence herbicidal rating CHEAL", "setting": "[3]; 0.0625 kg/ha", "value": 9.0}, {"measurement": "Preemergence herbicidal rating CHEAL", "setting": "[3]; 0.1250 kg/ha", "value": 9.0}, {"measurement": "Preemergence herbicidal rating CHEAL", "setting": "[3]; 0.2500 kg/ha", "value": 9.0}, {"measurement": "Postemergence herbicidal rating GALAP", "setting": "[4]; Rate 0.0156 kg/ha", "value": 3.0}, {"measurement": "Postemergence herbicidal rating GALAP", "setting": "[4]; Rate 0.0313 kg/ha", "value": 6.0}, {"measurement": "herbicidal rating GALAP", "setting": "[4]; rate 0.0625 kg/ha", "value": 7.0}]}
{"molecule": "C=CCN1C(=O)C(CC(=O)NO)SC1=Nc1cc(-n2c(=O)cc(C(F)(F)F)n(C)c2=O)c(F)cc1Cl", "note": "(stereo not drawn) [Compound 161, 3-Allyl-2-{{2-chloro-5-[3,6-dihydro-3-methyl-2,6-dioxo-4-(trifluoromethyl)-1(2H)-pyrimidinyl]-4-fluorophenyl}imino}-4-oxo-5-thiazolidineacetohydroxamic acid]", "values": [{"measurement": "herbicidal rating AMBEL", "setting": "[1]; rate 0.0156 kg/ha", "value": 1.0}, {"measurement": "herbicidal rating AMBEL", "setting": "[1]; rate 0.0313 kg/ha", "value": 4.0}, {"measurement": "herbicidal rating AMBEL", "setting": "[1]; rate 0.0625 kg/ha", "value": 9.0}, {"measurement": "herbicidal rating AMBEL", "setting": "[1]; rate 0.1250 kg/ha", "value": 9.0}, {"measurement": "herbicidal rating TRZAWR", "setting": "[2]; rate 0.0156 kg/ha", "value": 2.5}, {"measurement": "herbicidal rating TRZAWR", "setting": "[2]; rate 0.0313 kg/ha", "value": 3.5}, {"measurement": "herbicidal rating TRZAWR", "setting": "[2]; rate 0.0625 kg/ha", "value": 4.0}, {"measurement": "herbicidal rating TRZAWR", "setting": "[2]; rate 0.1250 kg/ha", "value": 4.5}, {"measurement": "Preemergence herbicidal rating CHEAL", "setting": "[3]; 0.0156 kg/ha", "value": 6.0}, {"measurement": "Preemergence herbicidal rating CHEAL", "setting": "[3]; 0.0313 kg/ha", "value": 7.0}, {"measurement": "Preemergence herbicidal rating CHEAL", "setting": "[3]; 0.0625 kg/ha", "value": 9.0}, {"measurement": "Preemergence herbicidal rating CHEAL", "setting": "[3]; 0.1250 kg/ha", "value": 9.0}, {"measurement": "Preemergence herbicidal rating CHEAL", "setting": "[3]; 0.2500 kg/ha", "value": 9.0}, {"measurement": "Preemergence herbicidal rating CHEAL", "setting": "[3]; 0.5000 kg/ha", "value": 9.0}, {"measurement": "herbicidal rating GALAP", "setting": "[4]; rate 0.0156 kg/ha", "value": 0.0}, {"measurement": "herbicidal rating GALAP", "setting": "[4]; rate 0.0313 kg/ha", "value": 1.0}, {"measurement": "herbicidal rating GALAP", "setting": "[4]; rate 0.0625 kg/ha", "value": 2.0}, {"measurement": "herbicidal rating GALAP", "setting": "[4]; rate 0.1250 kg/ha", "value": 4.0}]}
{"molecule": "CN1C(=O)C(CC(=O)NO)SC1=Nc1cc(-n2c(=O)cc(C(F)(F)F)n(C)c2=O)c(F)cc1Cl", "note": "(stereo not drawn) [Compound 162, 2-{{2-Chloro-5-[3,6-dihydro-3-methyl-2,6-dioxo-4-(trifluoromethyl)-1(2H)-pyrimidinyl]-4-fluorophenyl}imino}-3-methyl-4-oxo-5-thiazolidineacetohydroxamic acid]", "values": [{"measurement": "herbicidal rating AMBEL", "setting": "[1]; rate 0.0156 kg/ha", "value": 9.0}, {"measurement": "herbicidal rating AMBEL", "setting": "[1]; rate 0.0313 kg/ha", "value": 9.0}, {"measurement": "herbicidal rating AMBEL", "setting": "[1]; rate 0.0625 kg/ha", "value": 9.0}, {"measurement": "herbicidal rating TRZAWR", "setting": "[2]; rate 0.0156 kg/ha", "value": 3.5}, {"measurement": "herbicidal rating TRZAWR", "setting": "[2]; rate 0.0313 kg/ha", "value": 3.5}, {"measurement": "herbicidal rating TRZAWR", "setting": "[2]; rate 0.0625 kg/ha", "value": 3.5}, {"measurement": "Preemergence herbicidal rating CHEAL", "setting": "[3]; 0.0156 kg/ha", "value": 9.0}, {"measurement": "Preemergence herbicidal rating CHEAL", "setting": "[3]; 0.0313 kg/ha", "value": 9.0}, {"measurement": "Preemergence herbicidal rating CHEAL", "setting": "[3]; 0.0625 kg/ha", "value": 9.0}, {"measurement": "Preemergence herbicidal rating CHEAL", "setting": "[3]; 0.1250 kg/ha", "value": 9.0}, {"measurement": "Preemergence herbicidal rating CHEAL", "setting": "[3]; 0.2500 kg/ha", "value": 9.0}, {"measurement": "herbicidal rating GALAP", "setting": "[4]; rate 0.0156 kg/ha", "value": 0.0}, {"measurement": "herbicidal rating GALAP", "setting": "[4]; rate 0.0313 kg/ha", "value": 3.0}, {"measurement": "herbicidal rating GALAP", "setting": "[4]; rate 0.0625 kg/ha", "value": 6.0}]}
{"molecule": "COC(=O)CSCCN1C(=O)CSC1=Nc1cc(-n2c(=O)cc(C(F)(F)F)n(C)c2=O)c(F)cc1Cl", "note": "[Compound 158, Methyl {{2-{2-{{2-chloro-5-[3,6-dihydro-3-methyl-2,6-dioxo-4-(trifluoromethyl)-1(2H)-pyrimidinyl]-4-fluorophenyl}imino}-4-oxo-3-thiazolidinyl}ethyl}-thio}acetate]", "values": [{"measurement": "herbicidal rating AMBEL", "setting": "[1]; rate 0.0156 kg/ha", "value": 6.0}, {"measurement": "herbicidal rating AMBEL", "setting": "[1]; rate 0.0313 kg/ha", "value": 7.0}, {"measurement": "herbicidal rating AMBEL", "setting": "[1]; rate 0.0625 kg/ha", "value": 9.0}, {"measurement": "herbicidal rating TRZAWR", "setting": "[2]; rate 0.0156 kg/ha", "value": 3.5}, {"measurement": "herbicidal rating TRZAWR", "setting": "[2]; rate 0.0313 kg/ha", "value": 4.0}, {"measurement": "herbicidal rating TRZAWR", "setting": "[2]; rate 0.0625 kg/ha", "value": 3.5}, {"measurement": "Preemergence herbicidal rating CHEAL", "setting": "[3]; 0.0156 kg/ha", "value": 9.0}, {"measurement": "Preemergence herbicidal rating CHEAL", "setting": "[3]; 0.0313 kg/ha", "value": 9.0}, {"measurement": "Preemergence herbicidal rating CHEAL", "setting": "[3]; 0.0625 kg/ha", "value": 9.0}, {"measurement": "Preemergence herbicidal rating CHEAL", "setting": "[3]; [5]", "value": 9.0}, {"measurement": "Preemergence herbicidal rating CHEAL", "setting": "[3]; [6]", "value": 9.0}, {"measurement": "herbicidal rating GALAP", "setting": "[4]; rate 0.0156 kg/ha", "value": 0.0}, {"measurement": "herbicidal rating GALAP", "setting": "[4]; rate 0.0313 kg/ha", "value": 2.0}, {"measurement": "herbicidal rating GALAP", "setting": "[4]; rate 0.0625 kg/ha", "value": 3.0}]}
